Assay in all cases: relative viability (nuclei count vs DMSO), 5 days (fraction); higher = more cells survive
Compound in assay [1]: COc1ncc(-c2ccc3nccc(-c4ccnnc4)c3c2)cc1NS(=O)(=O)c1ccc(F)cc1F [Omipalisib] + COc1cc2c(Oc3ccc(NC(=O)C4(C(=O)Nc5ccc(F)cc5)CC4)cc3F)ccnc2cc1OCCCN1CCOCC1 [Foretinib] (partner 0.25 µM)
In a few lines:
(§1)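 Relative viability is defined as nuclei in treated wells over nuclei in vehicle wells. Duplicate plates were run and medians reported. Lung cancer cell lines in 1536-well plates were dosed by pin tool one day after seeding, with one drug or with a fixed anchor-drug dose plus five library-drug doses (not always all listed) in √10 steps, and nuclei were counted after 5 days.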

Compound in assay [2]: COc1ncc(-c2ccc3nccc(-c4ccnnc4)c3c2)cc1NS(=O)(=O)c1ccc(F)cc1F [Omipalisib] + C[C@@H](Oc1cc(-c2cnn(C3CCNCC3)c2)cnc1N)c1c(Cl)ccc(F)c1Cl [Crizotinib] (partner 1 µM)
In a few lines: as §1

Compound in assay [3]: COc1ncc(-c2ccc3nccc(-c4ccnnc4)c3c2)cc1NS(=O)(=O)c1ccc(F)cc1F [Omipalisib] + Nc1nc2[nH]cc(CCc3ccc(C(=O)N[C@@H](CCC(=O)O)C(=O)O)cc3)c2c(=O)[nH]1 [Pemetrexed] (partner 0.2 µM)
In a few lines: as §1

Compound in assay [4]: COc1ncc(-c2ccc3nccc(-c4ccnnc4)c3c2)cc1NS(=O)(=O)c1ccc(F)cc1F [Omipalisib] + COc1cccc2cc(-c3nc([C@H]4CC[C@H](C(=O)O)CC4)n4ncnc(N)c34)[nH]c12 [OSI-027] (partner 0.5 µM)
In a few lines:
as §1

Compound in assay [5]: COc1ncc(-c2ccc3nccc(-c4ccnnc4)c3c2)cc1NS(=O)(=O)c1ccc(F)cc1F [Omipalisib] + Cc1nc(Nc2ncc(C(=O)Nc3c(C)cccc3Cl)s2)cc(N2CCN(CCO)CC2)n1 [Dasatinib] (partner 0.075 µM)
In a few lines:
as §1

Compound in assay [6]: COc1ncc(-c2ccc3nccc(-c4ccnnc4)c3c2)cc1NS(=O)(=O)c1ccc(F)cc1F [Omipalisib] + CC(=O)c1c(C)c2cnc(Nc3ccc(N4CCNCC4)cn3)nc2n(C2CCCC2)c1=O [Palbociclib] (partner 0.5 µM)
In a few lines:
as §1

As for NCI-H2170, the relative viability in assay [1] (first compound 0.0003 µM) worked out at 0.945; in assay [1] (first compound 0.003 µM), 0.565; in assay [1] (first compound 0.03 µM), 0.565; in assay [2] (first compound 0.0003 µM), 1.04; in assay [2] (first compound 0.003 µM), 0.786; in assay [2] (first compound 0.03 µM), 0.418. The relative viability in assay [3] (first compound 0.0003 µM) came out at 0.26; in assay [3] (first compound 0.003 µM) it was 0.262; in assay [3] (first compound 0.03 µM), 0.253; in assay [4] (first compound 0.0003 µM), 0.656; in assay [4] (first compound 0.003 µM), 0.475; in assay [4] (first compound 0.03 µM) it was 0.485. Also, the relative viability is 0.517 in assay [5] (first compound 0.0003 µM); 0.426 in assay [5] (first compound 0.003 µM); 0.453 in assay [5] (first compound 0.03 µM); 0.301 in assay [6] (first compound 0.0003 µM); 0.236 in assay [6] (first compound 0.003 µM); 0.173 in assay [6] (first compound 0.03 µM).

NCI-H1666: the relative viability in assay [1] (first compound 0.0003 µM) came to 0.92; in assay [1] (first compound 0.003 µM), 0.819; in assay [1] (first compound 0.03 µM), 0.629; in assay [2] (first compound 0.0003 µM), 0.974; in assay [2] (first compound 0.003 µM), 0.743; in assay [2] (first compound 0.03 µM), 0.494. Besides, the relative viability came out at 0.879 in assay [3] (first compound 0.0003 µM); 0.892 in assay [3] (first compound 0.003 µM); 0.631 in assay [3] (first compound 0.03 µM); 0.758 in assay [4] (first compound 0.0003 µM); 0.621 in assay [4] (first compound 0.003 µM); 0.609 in assay [4] (first compound 0.03 µM). Further, the relative viability in assay [5] (first compound 0.0003 µM) was 0.787; in assay [5] (first compound 0.003 µM), 0.673; in assay [5] (first compound 0.03 µM), 0.539; in assay [6] (first compound 0.0003 µM), 0.641; in assay [6] (first compound 0.003 µM), 0.632; in assay [6] (first compound 0.03 µM), 0.658.

NCI-H650: the relative viability in assay [1] (first compound 0.0003 µM) is 1.04; in assay [1] (first compound 0.003 µM), 0.877; in assay [1] (first compound 0.03 µM) it was 0.613; in assay [2] (first compound 0.0003 µM), 0.671; in assay [2] (first compound 0.003 µM), 0.472; in assay [2] (first compound 0.03 µM) it was 0.338. The relative viability in assay [3] (first compound 0.0003 µM) is 0.903; in assay [3] (first compound 0.003 µM), 0.634; in assay [3] (first compound 0.03 µM), 0.453; in assay [4] (first compound 0.0003 µM), 0.447; in assay [4] (first compound 0.003 µM), 0.384; in assay [4] (first compound 0.03 µM), 0.315. Further, the relative viability in assay [5] (first compound 0.0003 µM) turned out to be 0.469; in assay [5] (first compound 0.003 µM) it was 0.317; in assay [5] (first compound 0.03 µM) it was 0.266; in assay [6] (first compound 0.0003 µM), 0.297; in assay [6] (first compound 0.003 µM), 0.275; in assay [6] (first compound 0.03 µM), 0.222.

In the case of NCI-H520, the relative viability in assay [1] (first compound 0.0003 µM) was found to be 0.742; in assay [1] (first compound 0.003 µM) it was 0.441; in assay [1] (first compound 0.03 µM), 0.226; in assay [2] (first compound 0.0003 µM) it was 0.636; in assay [2] (first compound 0.003 µM), 0.622; in assay [2] (first compound 0.03 µM), 0.193. The relative viability in assay [3] (first compound 0.0003 µM) amounted to 0.58; in assay [3] (first compound 0.003 µM) it was 0.433; in assay [3] (first compound 0.03 µM) it was 0.184; in assay [4] (first compound 0.0003 µM), 0.235; in assay [4] (first compound 0.003 µM), 0.214; in assay [4] (first compound 0.03 µM), 0.203. In addition, the relative viability in assay [5] (first compound 0.0003 µM) stood at 0.159; in assay [5] (first compound 0.003 µM), 0.162; in assay [5] (first compound 0.03 µM) it was 0.131; in assay [6] (first compound 0.0003 µM), 0.203; in assay [6] (first compound 0.003 µM) it was 0.152; in assay [6] (first compound 0.03 µM), 0.145.

As for HCC-366, the relative viability in assay [1] (first compound 0.0003 µM) was determined as 0.849; in assay [1] (first compound 0.003 µM) it was 0.772; in assay [1] (first compound 0.03 µM) it was 0.189; in assay [2] (first compound 0.0003 µM), 0.365; in assay [2] (first compound 0.003 µM), 0.0929; in assay [2] (first compound 0.03 µM), 0.041. The relative viability amounted to 0.214 in assay [3] (first compound 0.0003 µM); 0.257 in assay [3] (first compound 0.003 µM); 0.171 in assay [3] (first compound 0.03 µM); 1.18 in assay [4] (first compound 0.0003 µM); 0.35 in assay [4] (first compound 0.003 µM); 0.203 in assay [4] (first compound 0.03 µM). The relative viability came out at 0.575 in assay [5] (first compound 0.0003 µM); 0.2 in assay [5] (first compound 0.003 µM); 0.179 in assay [5] (first compound 0.03 µM); 0.329 in assay [6] (first compound 0.0003 µM); 0.202 in assay [6] (first compound 0.003 µM); 0.0493 in assay [6] (first compound 0.03 µM).

Consider NCI-H1355, for which the relative viability in assay [1] (first compound 0.0003 µM) came to 0.764; in assay [1] (first compound 0.003 µM), 0.643; in assay [1] (first compound 0.03 µM), 0.416; in assay [2] (first compound 0.0003 µM) it was 0.999; in assay [2] (first compound 0.003 µM), 0.653; in assay [2] (first compound 0.03 µM), 0.327. Further, the relative viability in assay [3] (first compound 0.0003 µM) came out at 1.01; in assay [3] (first compound 0.003 µM) it was 0.868; in assay [3] (first compound 0.03 µM), 0.52; in assay [4] (first compound 0.0003 µM), 0.377; in assay [4] (first compound 0.003 µM), 0.238; in assay [4] (first compound 0.03 µM) it was 0.237. Also, the relative viability in assay [5] (first compound 0.0003 µM) stood at 0.596; in assay [5] (first compound 0.003 µM), 0.402; in assay [5] (first compound 0.03 µM), 0.307; in assay [6] (first compound 0.0003 µM), 0.358; in assay [6] (first compound 0.003 µM) it was 0.239; in assay [6] (first compound 0.03 µM) it was 0.198.

Take LU99A: the relative viability in assay [1] (first compound 0.0003 µM) worked out at 0.718; in assay [1] (first compound 0.003 µM), 0.464; in assay [1] (first compound 0.03 µM) it was 0.327; in assay [2] (first compound 0.0003 µM), 0.55; in assay [2] (first compound 0.003 µM), 0.449; in assay [2] (first compound 0.03 µM), 0.225. Also, the relative viability in assay [3] (first compound 0.0003 µM) stood at 0.186; in assay [3] (first compound 0.003 µM), 0.192; in assay [3] (first compound 0.03 µM), 0.191; in assay [4] (first compound 0.0003 µM), 0.315; in assay [4] (first compound 0.003 µM) it was 0.213; in assay [4] (first compound 0.03 µM), 0.239. Also, the relative viability in assay [5] (first compound 0.0003 µM) came to 0.482; in assay [5] (first compound 0.003 µM) it was 0.331; in assay [5] (first compound 0.03 µM), 0.267; in assay [6] (first compound 0.0003 µM) it was 0.396; in assay [6] (first compound 0.003 µM), 0.24; in assay [6] (first compound 0.03 µM), 0.183.
